{"source": "patent US20260183320A1", "about": "“METHOD FOR TREATING CANCER BY COMBINING ALKYLATING AGENT PRODRUG AND CELL CYCLE INHIBITOR” (ASCENTAWITS PHARMACEUTICALS, LTD., priority 2022, published 2026)", "key": {"[1]": {"tested_on": "HT29 cell line", "assay": "HT29 cell line proliferation inhibition assay under normoxia and hypoxia (CTG)", "type": "cell-based", "settings": "for additive cytotoxic effect in combination therapy with adavosertib / additive cytotoxic effect in combination therapy with ceralasertib: HT29 (p53-deficient); for Ratio single/combo under Hypoxia / Ratio single/combo under Normoxia / Normoxia/Hypoxia Ratio: HT29; for IC50: Homo sapiens, HT-29, HT29", "procedure": "(§1) 24-well plates with glass inserts were used in assays under hypoxia, and ordinary plastic 24-well plates were used in assays under normoxia. • 2) The cells were incubated overnight at 37° C. in an incubator with 5% CO2. • 3) Treatment with Compounds\n(§2) A hypoxia workstation was tuned to create a hypoxic environment, and an oxygen indicator was used to confirm the hypoxia in the workstation.\n(§3) After cell plating for 24 hours, the 24-well plates with glass inserts were transferred into the hypoxia workstation.\n(§4) The 24-well plates were placed on a shaker, uncovered and shaken to allow air exchange for 5 min.\n(§5) For each well for combination therapy, 5 or 10 μL of medium was removed and 5 μL of adavosertib (to a final concentration of 1 or 10 μM) or ceralasertib (to a final concentration of 200 or 2000 μM), followed by incubation for 2 h.\n(§6) To each well, 5 or 10 μL of the compound was added at a 100× concentration. Three replicate wells were set up for each group.\n(§7) Gentle shaking was carried out until homogeneous mixing of the compound, and the 24-well plates were incubated for 3 hours in the hypoxia workstation with their lids being half opened.\n(§8) 24 hours after plating of the cells, for each well for combination therapy, 5 or 10 μL of medium was removed and 5 μL of adavosertib (to a final concentration of 1 or 10 μM) or ceralasertib (to a final concentration of 200 or 2000 μM), followed by incubation for 2 h."}, "[2]": {"tested_on": "H460 cell line", "assay": "H460 cell line proliferation inhibition assay under normoxia and hypoxia (CTG)", "type": "cell-based", "settings": "for IC50: Homo sapiens, NCI-H460, H460", "procedure": "as §1, §2, §3, §4, §5, §6, §7, §8\nIn the H460 cell proliferation inhibition assays, adavosertib was added to final concentrations of 3 μM and 30 μM, and ceralasertib was added to final concentrations of 2 μM, 20 µM and 1000 μM."}, "[3]": {"settings": "H460 (wild-type p53), normoxia or hypoxia"}}}
{"smiles": "Cn1c(COP(=O)(NCCBr)NCCBr)cnc1[N+](=O)[O-]", "note": "[TH-302]", "values": [{"measurement": "additive cytotoxic effect in combination therapy with adavosertib", "setting": "[1]; adavosertib at a high concentration, hypoxia", "value": "significant additive cytotoxic effect"}, {"measurement": "additive cytotoxic effect in combination therapy with ceralasertib", "setting": "[1]; ceralasertib at a high concentration, hypoxia", "value": "significant additive cytotoxic effect"}, {"measurement": "additive cytotoxic effect in combination therapy with adavosertib", "setting": "[1]; normoxia", "value": "did not exhibit any significant additive cytotoxic effects"}, {"measurement": "additive cytotoxic effect in combination therapy with ceralasertib", "setting": "[1]; normoxia", "value": "did not exhibit any significant additive cytotoxic effects"}, {"measurement": "Ratio single/combo under Hypoxia", "setting": "[1]; 1 μM adavosertib", "value": 2.49}, {"measurement": "Ratio single/combo under Normoxia", "setting": "[1]; 1 μM adavosertib", "value": 2.41}, {"measurement": "Ratio single/combo under Hypoxia", "setting": "[1]; 10 μM adavosertib", "value": 8.68}, {"measurement": "Ratio single/combo under Normoxia", "setting": "[1]; 10 μM adavosertib", "value": 6.57}, {"measurement": "Ratio single/combo under Hypoxia", "setting": "[1]; 200 μM ceralasertib", "value": 7.11}, {"measurement": "Ratio single/combo under Normoxia", "setting": "[1]; 200 μM ceralasertib", "value": 1.24}, {"measurement": "Ratio single/combo under Hypoxia", "setting": "[1]; 2000 μM ceralasertib", "value": ">44.66"}, {"measurement": "Ratio single/combo under Normoxia", "setting": "[1]; 2000 μM ceralasertib", "value": 2.77}, {"measurement": "Normoxia/Hypoxia Ratio", "setting": "[1]; monotherapy, Table 16", "value": 74.35}, {"measurement": "Normoxia/Hypoxia Ratio", "setting": "[1]; monotherapy, Table 18", "value": 51.62}, {"measurement": "Normoxia/Hypoxia Ratio", "setting": "[1]; with 1 μM adavosertib", "value": 76.80}, {"measurement": "Normoxia/Hypoxia Ratio", "setting": "[1]; with 10 μM adavosertib", "value": 98.18}, {"measurement": "Normoxia/Hypoxia Ratio", "setting": "[1]; with 200 μM ceralasertib", "value": 294.78}, {"measurement": "Normoxia/Hypoxia Ratio", "setting": "[1]; with 2000 μM ceralasertib", "value": ">821.56"}, {"measurement": "IC50", "setting": "[1]; monotherapy, hypoxia, adavosertib series (Table 16)", "value": 23.4, "unit": "µM"}, {"measurement": "IC50", "setting": "[1]; monotherapy, hypoxia, ceralasertib series (Table 18)", "value": 14.3, "unit": "µM"}, {"measurement": "IC50", "setting": "[1]; monotherapy, normoxia, adavosertib series (Table 16)", "value": "~1740", "unit": "µM"}, {"measurement": "IC50", "setting": "[1]; monotherapy, normoxia, ceralasertib series (Table 18)", "value": 738, "unit": "µM"}, {"measurement": "IC50", "setting": "[1]; with 1 μM adavosertib, hypoxia", "value": 9.38, "unit": "µM"}, {"measurement": "IC50", "setting": "[1]; with 1 μM adavosertib, normoxia", "value": 720, "unit": "µM"}, {"measurement": "IC50", "setting": "[1]; with 10 μM adavosertib, hypoxia", "value": 2.69, "unit": "µM"}, {"measurement": "IC50", "setting": "[1]; with 10 μM adavosertib, normoxia", "value": 264, "unit": "µM"}, {"measurement": "IC50", "setting": "[1]; with 200 μM ceralasertib, hypoxia", "value": 2.01, "unit": "µM"}, {"measurement": "IC50", "setting": "[1]; with 200 μM ceralasertib, normoxia", "value": 592, "unit": "µM"}, {"measurement": "IC50", "setting": "[1]; with 2000 μM ceralasertib, hypoxia", "value": "< 0.32", "unit": "µM"}, {"measurement": "IC50", "setting": "[1]; with 2000 μM ceralasertib, normoxia", "value": 266, "unit": "µM"}, {"measurement": "additive cytotoxic effect in combination therapy with adavosertib", "setting": "[2]; [3]", "value": "did not exhibit any significant additive cytotoxic effects"}, {"measurement": "additive cytotoxic effect in combination therapy with ceralasertib", "setting": "[2]; [3]", "value": "did not exhibit any significant additive cytotoxic effects"}, {"measurement": "Ratio combo/single under Normoxia", "setting": "[2]; H460, 2 μM ceralasertib", "value": 1.07}, {"measurement": "Ratio single/combo under Hypoxia", "setting": "[2]; H460, 2 μM ceralasertib", "value": 1.71}, {"measurement": "Ratio single/combo under Hypoxia", "setting": "[2]; H460, 3 μM adavosertib", "value": 1.56}, {"measurement": "Ratio single/combo under Normoxia", "setting": "[2]; H460, 3 μM adavosertib", "value": 1.12}, {"measurement": "Ratio single/combo under Hypoxia", "setting": "[2]; H460, 20 μM ceralasertib", "value": 1.49}, {"measurement": "Ratio single/combo under Normoxia", "setting": "[2]; H460, 20 μM ceralasertib", "value": 1.05}, {"measurement": "Ratio single/combo under Hypoxia", "setting": "[2]; H460, 30 μM adavosertib", "value": 2.14}, {"measurement": "Ratio single/combo under Hypoxia", "setting": "[2]; H460, 1000 μM ceralasertib", "value": ">6.17"}, {"measurement": "Ratio single/combo under Normoxia", "setting": "[2]; H460, 1000 μM ceralasertib", "value": 1.36}, {"measurement": "Normoxia/Hypoxia Ratio", "setting": "[2]; H460, monotherapy, Table 17", "value": 824.83}, {"measurement": "Normoxia/Hypoxia Ratio", "setting": "[2]; H460, monotherapy, Table 19", "value": 1737.84}, {"measurement": "Normoxia/Hypoxia Ratio", "setting": "[2]; H460, with 2 μM ceralasertib", "value": 3190.74}, {"measurement": "Normoxia/Hypoxia Ratio", "setting": "[2]; H460, with 3 μM adavosertib", "value": 1448.06}, {"measurement": "Normoxia/Hypoxia Ratio", "setting": "[2]; H460, with 20 μM ceralasertib", "value": 2464.52}, {"measurement": "Normoxia/Hypoxia Ratio", "setting": "[2]; H460, with 30 μM adavosertib", "value": 1518.50}, {"measurement": "Normoxia/Hypoxia Ratio", "setting": "[2]; H460, with 1000 μM ceralasertib", "value": ">7853.33"}, {"measurement": "IC50", "setting": "[2]; monotherapy, hypoxia, adavosertib series (Table 17)", "value": 0.0255, "unit": "µM"}, {"measurement": "IC50", "setting": "[2]; monotherapy, hypoxia, ceralasertib series (Table 19)", "value": 0.0185, "unit": "µM"}, {"measurement": "IC50", "setting": "[2]; monotherapy, normoxia, adavosertib series (Table 17)", "value": 21, "unit": "µM"}, {"measurement": "IC50", "setting": "[2]; monotherapy, normoxia, ceralasertib series (Table 19)", "value": 32.1, "unit": "µM"}, {"measurement": "IC50", "setting": "[2]; with 2 μM ceralasertib, hypoxia", "value": 0.0108, "unit": "µM"}, {"measurement": "IC50", "setting": "[2]; with 2 μM ceralasertib, normoxia", "value": 34.5, "unit": "µM"}, {"measurement": "IC50", "setting": "[2]; with 3 μM adavosertib, hypoxia", "value": 0.0163, "unit": "µM"}, {"measurement": "IC50", "setting": "[2]; with 3 μM adavosertib, normoxia", "value": 23.6, "unit": "µM"}, {"measurement": "IC50", "setting": "[2]; with 20 μM ceralasertib, hypoxia", "value": 0.0124, "unit": "µM"}, {"measurement": "IC50", "setting": "[2]; with 20 μM ceralasertib, normoxia", "value": 30.6, "unit": "µM"}, {"measurement": "IC50", "setting": "[2]; with 30 μM adavosertib, hypoxia", "value": 0.0119, "unit": "µM"}, {"measurement": "IC50", "setting": "[2]; with 30 μM adavosertib, normoxia", "value": 18.1, "unit": "µM"}, {"measurement": "IC50", "setting": "[2]; with 1000 μM ceralasertib, hypoxia", "value": "< 0.003", "unit": "µM"}, {"measurement": "IC50", "setting": "[2]; with 1000 μM ceralasertib, normoxia", "value": 23.6, "unit": "µM"}]}
